18 compounds from PubChem BioAssay (NCI) can be followed below.

Test in all cases: inhibition of tumour cell growth, NCI panel, 48 h
In assay [1] the test system is HL-60(TB) leukemia.
For assay [2], the system named is KM12 colon.
For assay [3], the system named is NCI/ADR-RES ovarian.
Assay [4] concerns T-47D breast.
Assay [5] concerns HOP-92 NSCLC.
Assay [6] concerns HCT-15 colon.
Assay [7] concerns UO-31 renal.
Assay [8] deals with SW-620 colon.
For assay [9], the system named is OVCAR-5 ovarian.
Assay [10] relates to IGROV1 ovarian.

Molecules are shown by their SMILES.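 Compound exposure: 48 hours, 5 concentrations, 96-well plates. GI50 is the concentration that inhibits growth by half. Definition used: TGI = concentration required for complete inhibition of growth.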

As for `COc1cc(-c2c(C#N)c(N)nc(N3CCOCC3)c2C#N)cc(OC)c1OC`, the GI50 in assay [1] was above 100 µM; in assay [2], above 100 µM; in assay [3] it was above 100 µM; in [4] it was 15.1 µM; in assay [5], 35.9 µM; in [6], above 100 µM. For the same compound, the GI50 in assay [7] is 96.1 µM; in assay [8] it was above 100 µM; in assay [9], 27.2 µM; in assay [10] it was 92.1 µM. Further, the TGI in assay [1], in assay [2], in assay [3], in assay [4], in assay [5] and in assay [6] was above 100 µM throughout. Moreover, the TGI in [7], in assay [8], in assay [9] and in assay [10] was above 100 µM throughout.
Consider `CCN1Cc2nc3sc(C)c(C)c3c(=O)n2C=C1C`, for which the GI50 in assay [1] was 2.1 µM; in assay [2], 2.8 µM; in [3], 5.12 µM; in assay [4] it was 4.17 µM; in [5], 6.2 µM; in assay [6], 3.5 µM. Also, the GI50 in assay [7] is 5.29 µM; in assay [8], 2.75 µM; in assay [9], 42.3 µM. In addition, the TGI in assay [1] was 6.48 µM; in assay [2] it was 14.4 µM; in assay [3] it was 79.6 µM; in assay [4] it was above 100 µM; in assay [5], 46.4 µM; in assay [6] it was 19 µM. In addition, the TGI in assay [7] is above 100 µM; in [8] it was 12.6 µM; in assay [9], above 100 µM.
Regarding `CC1OC(OC2C(OC3CCC4(C)C(CCC5(C)C4CC=C4C6CC(C)(C)CCC6(C(=O)O)CCC45C)C3(C)CO)OCC(O)C2O)C(O)C(O)C1O` (configuration not stated), the TGI stood at 21.7 µM in [2]; 43.4 µM in [3]; 46.8 µM in assay [4]; 27.3 µM in [5]; 42.1 µM in assay [6]; 13.1 µM in assay [7]. Further, the results for the TGI in assay [8], in [9] and in assay [10] were 55.4 µM, 38.4 µM and 32.9 µM, respectively.
For the compound `COc1cc(/C=C2\C[C@H]3[C@@H]4CC=C5C[C@@H](O)CC[C@]5(C)[C@H]4CC[C@]3(C)[C@H]2O)ccc1OCCCn1ccnc1`, the GI50 is 2.79 µM in [1]; 1.82 µM in assay [2]; 13.6 µM in assay [3]; 17.7 µM in [4]; 4.44 µM in assay [5]; 2.12 µM in assay [7]. In addition, the results for the GI50 in [9] and in [10] were 7.14 µM and 12.5 µM, respectively. In addition, the TGI is 15.9 µM in assay [1]; 7.2 µM in assay [2]; above 50 µM in [3]; above 50 µM in assay [4]; 12.5 µM in assay [5]; above 50 µM in assay [7]. Besides, the TGI is 23.3 µM in assay [9] and above 50 µM in assay [10].
On to `NCC1OC(OC2C(CO)OC(OC3C(O)C(N)CC(N)C3OC3OC(CO)C(O)CC3N)C2O)C(N)C(O)C1OC1OC(CO)C(O)C(O)C1O` (configuration not stated), for which the GI50 in assay [1] is above 50 µg/mL; in assay [3], above 50 µg/mL; in assay [4], above 50 µg/mL; in assay [5], 14.7 µg/mL; in assay [6] it was above 50 µg/mL; in [7], above 50 µg/mL. Further, the GI50 in assay [8], in [9] and in [10] was above 50 µg/mL throughout. For the same compound, the TGI in assay [1], in assay [3], in assay [4], in [5], in assay [6] and in assay [7] was above 50 µg/mL in each case. The TGI in assay [8], in [9] and in assay [10] was above 50 µg/mL in each case.
For `OCc1ccc(N2CCc3ccccc3C2)cc1Cl`, the GI50 in [1] is 17.9 µM; in assay [2], 13.6 µM; in assay [3] it was 5.13 µM; in assay [5], 0.0448 µM; in assay [6], 3.35 µM; in assay [7], 8.28 µM. Moreover, the GI50 is below 0.0218 µM in assay [8], below 0.0123 µM in [9] and below 0.0155 µM in assay [10]. In addition, the TGI in [1] was 61.4 µM; in [2], 40.1 µM; in [3], 39.8 µM; in assay [5], 9.28 µM; in assay [6], 41.6 µM; in assay [7], 55.8 µM. The TGI in [8] is above 100 µM; in assay [9], 0.069 µM; in [10], below 0.0281 µM.
For `O=C1OCC2=C1C(c1ccc(Cl)c(Cl)c1)c1cc3c(cc1N2CCO)CCC3` (configuration not stated), the GI50 in [1] is 0.172 µM; in assay [2], 0.181 µM; in [3], 0.123 µM; in assay [4], 0.25 µM; in [6], 0.215 µM; in assay [7], 0.237 µM. Also, the GI50 in [8] is 0.166 µM; in assay [9], 0.336 µM; in [10], 0.555 µM. The TGI in assay [1] was determined as 1.54 µM; in assay [2] it was 6.57 µM; in [3] it was 2.3 µM; in assay [4], 20.6 µM; in [6] it was 20.3 µM; in assay [7], 21.2 µM. Besides, the figures for the TGI in assay [8], in assay [9] and in [10] were 10.7 µM, 15.3 µM and 17.8 µM, respectively.
On to `COc1ccc(-n2ccnc2-c2cc(OC)c(OC)c(OC)c2)cc1`, for which the GI50 in [2] was 4.59 µM; in assay [3] it was 1.85 µM; in assay [4] it was 8.48 µM; in [5] it was 20 µM; in assay [6], 1.53 µM; in assay [7], 4.91 µM. Further, the GI50 was 2.37 µM in assay [8], 10.1 µM in assay [9] and 2.42 µM in assay [10]. For the same compound, the TGI was above 100 µM in [2]; 7.82 µM in assay [3]; above 100 µM in assay [4]; above 100 µM in [5]; above 100 µM in assay [6]; 71.2 µM in assay [7]. Also, the TGI in assay [8], in assay [9] and in [10] was above 100 µM each time.
Consider `O=C(Nc1ccccc1)c1cc(S(=O)(=O)Nc2nc3ccccc3o2)c(SCc2ccccc2)cc1Cl`, for which the GI50 in [2] is 16.7 µM; in assay [3], 26.1 µM; in assay [4], 22.5 µM; in assay [6] it was 17 µM; in [7] it was 17.8 µM; in assay [8], 17.1 µM. The GI50 in assay [9] was 22.5 µM; in assay [10], 17.9 µM. Moreover, the TGI in [2] was found to be 32.6 µM; in assay [3], 66.3 µM; in [4], 91.3 µM; in [6], 34 µM; in assay [7] it was 48.5 µM; in assay [8] it was 37.7 µM. Also, the TGI is 43.3 µM in assay [9] and 36.7 µM in [10].
Take `Cn1c(NCC(O)CN2CCCC2)cc(=O)n(C)c1=O` (configuration not stated): the GI50 in assay [2], in assay [3], in assay [4], in [5], in [6] and in assay [7] was above 100 µM throughout. The GI50 in [8], in [9] and in [10] was above 100 µM in each case. Moreover, the TGI in assay [2], in assay [3], in assay [4], in assay [5], in assay [6] and in assay [7] was above 100 µM throughout. The TGI in assay [8], in [9] and in assay [10] was above 100 µM throughout.
`COc1ccc(C2C=C(c3ccc4c(c3)OCO4)Oc3c2c(=O)oc2ccccc32)cc1OC` (configuration not stated): the TGI is 0.6 µM in [1]; above 100 µM in [2]; above 100 µM in [3]; above 73.1 µM in assay [5]; above 100 µM in assay [6]; above 100 µM in [7]. Also, the TGI in assay [8], in assay [9] and in assay [10] was above 100 µM in each case.
In the case of `O=S(=O)(/N=c1/scc(-c2ccccc2)n1-c1ccccc1)c1ccc(N2N=C3c4ccccc4CC3C2c2cccs2)cc1` (configuration not stated), the GI50 in assay [2] is 32.1 µM; in assay [3], above 100 µM; in assay [4] it was above 100 µM; in assay [5], above 100 µM; in assay [6], 67.3 µM; in [7], above 100 µM. Further, the GI50 in assay [8] is 94.2 µM; in [9] it was 88.9 µM. The TGI in [2], in assay [3], in assay [4], in assay [5], in assay [6] and in assay [7] was above 100 µM throughout. The TGI in assay [8] and in [9] was above 100 µM each time.
For `CS(=O)(=O)CC(=O)c1ccccc1`, the TGI in assay [1], in [2], in [3], in assay [4], in assay [6] and in assay [7] was above 100 µM in each case. Also, the TGI in [8], in [9] and in [10] was above 100 µM in each case.
Take `NCOC(=O)Cc1ccc(Br)cc1`: the TGI in assay [1], in assay [3], in [4], in assay [5], in assay [6] and in assay [7] was above 100 µM in each case. Further, the TGI in assay [8], in [9] and in assay [10] was above 100 µM in each case.
With `COc1cc(/C=C/C(=O)N2CCN(C(=O)c3cc(OC)c(OC)c(OC)c3)CC2)ccc1OCCCOc1cc2c(cc1OC)C(=O)N1CCC[C@H]1C=N2`, the GI50 in [1] was 0.214 µM; in assay [2] it was 0.25 µM; in assay [3], 11.4 µM; in assay [4], 0.15 µM; in [5], 0.297 µM; in assay [6], 3.18 µM. The values for the GI50 in assay [7] and in [8] were 1.98 µM and 0.198 µM, respectively. Moreover, the TGI in assay [2] was 0.699 µM; in assay [3], above 95 µM; in assay [4], 0.495 µM; in [5], 7.46 µM; in assay [6] it was 27.7 µM; in [7], 6.56 µM. This compound also returned a TGI in assay [8] of 0.446 µM.
As for `Cn1c(/C=C/[N+](=O)[O-])cc2ccccc21`, the GI50 in assay [1] is 13.1 µM; in assay [2], 1.69 µM; in assay [3], 6.45 µM; in [4] it was 2.79 µM; in assay [6], 3.24 µM; in assay [7], 1.47 µM. For the same compound, the GI50 was 1.67 µM in [8], 21.2 µM in assay [9] and 2.05 µM in assay [10]. For the same compound, the TGI is 57.5 µM in assay [1]; 3.15 µM in assay [2]; 92.5 µM in assay [3]; 8.61 µM in [4]; 11.2 µM in assay [6]; 3.64 µM in assay [7]. For the same compound, the TGI in assay [8] worked out at 3.22 µM; in assay [9] it was 56.6 µM; in assay [10] it was 5.44 µM.
As for `Cc1cc(C(C)(C)C)cc(CNC2CCCCC2)c1O`, the TGI in [2] was determined as 46.3 µM; in assay [3] it was 31.2 µM; in assay [4], 32.8 µM; in assay [5], 29.3 µM; in assay [6], 31.4 µM; in [7], 28.2 µM. Besides, the results for the TGI in assay [8], in assay [9] and in assay [10] were 40.4 µM, 31.9 µM and 26.9 µM, respectively.
Take `COc1cc(-c2cc(-c3cc(OC)c(OC)c(OC)c3)nc3nc(N)[nH]c(=O)c23)ccc1Oc1ccnc2cc(Cl)ccc12`: the GI50 in assay [1] was 2.45 µM; in assay [2], 0.548 µM; in [3], 2.14 µM; in assay [4], 5.22 µM; in [6] it was 0.457 µM; in assay [7] it was 3.45 µM. For the same compound, the GI50 is 1.35 µM in assay [8], 4.76 µM in assay [9] and 4.49 µM in assay [10]. Further, the TGI was 8.22 µM in assay [1]; 14.9 µM in assay [2]; above 100 µM in assay [3]; 58 µM in assay [4]; 24.4 µM in [6]; above 100 µM in assay [7]. Also, the TGI in assay [8], in [9] and in [10] was above 100 µM each time.
